Experimental data as given in EP2386565A2, “Compounds and methods to inhibit or augment an inflammatory response” (Cambridge Enterprise Ltd., priority 1999, dated 2000).
Where “and” joins values, the source holds several entries; their conditions need not be identical. Equal values may be shown once. Positions of bridges follow the written chain, without caps; N, C: chain ends. Non-standard residues stand in square brackets, D forms with d. Residues, ends and D or L forms follow the SMILES beside them.

What was measured:
trypsin = assay: Stability against enzymatic destruction; type: in vitro ADME; conditions: 5 units trypsin for 2 hrs at 37°C
Source text: For example, to prepare a peptide 3 derivative, peptide 3(3-12)[MCP-1] was modified according to Jameson et al. (Nature, 368, 744 (1994)), which yielded CRD-Cys13Leu4Ile11peptide 3(3-12)[MCP-1] (Figure 3).

[1] = tested on: ovalbumin-induced pulmonary inflammation, IgE, IL-4 and recall responses; assay: Ovalbumin-induced asthma / hypersensitivity model; type: in vivo, mice; design: Total IgE (Serum), individual mice m1-m4 / Total IgE (Serum), Avg.: unit not given here
Procedure: A third study assessed the efficacy of daily dosing with CRD-Leu4Ile11Cys13 peptide 3(3-12)[MCP-1] to reduce OVA-induced pulmonary inflammation. Mice were sensitized with 0.1 mg of ovalbumin or PBS (diluent control) intraperitoneally in the absence of the test agent. […] These treatments were given daily from day 8 through day 21. On day 8, thirty minutes following treatment, mice were challenged intratracheally with 1% ovalbumin or PBS. On days 15, 18, and 21, thirty minutes following treatment, mice were challenged intratracheally with 2% ovalbumin or PBS. Mice were sacrificed 3 hours post-ovalbumin challenge, on day 21. Lungs were collected for histopathology, and for isolation of cells for total cell counts and FACS analysis. Bronchalveolar lavage (BAL) was collected for eicosinoid levels. Serum was collected for IgE and IL-4 levels. Spleens were collected for cytokine recall responses. […]

[2] = Group 2: Ova on days 8, 15, 18, 21, treat 1 × day 21, sacrifice day 21, 0 µg/ml Ova
[3] = Group 4: Ova on days 8, 15, 18, 21 & 35, treat BID 14 days, sacrifice day 35 (recent Ova challenge), 0 µg/ml Ova

CC[C@@H](C)[C@H]1NC(=O)[C@@H](CCC(N)=O)NC(=O)[C@H](N)CSSC[C@H](C(N)=O)NC(=O)[C@@H](CC(C)C)NC(=O)[C@@H](CC(=O)O)NC(=O)[C@H]2CCCN2C(=O)[C@@H](CCCCN)NC(=O)[C@@H](CCC(N)=O)NC(=O)[C@@H](CCCCN)NC(=O)[C@@H](Cc2c[nH]c3ccccc23)NC1=O (H-[dC][dQ][dI][dW][dK][dQ][dK][dP][dD][dL][dC]-NH2; disulfide 1-11)
stability against enzymatic destruction (in words) (trypsin): stable | Total IgE (Serum), Avg. ([1]; Group 2): 1.505 | Total IgE (Serum), individual mice m1-m4 ([1]; Group 2 (single treatment day 21)): 1.952 and 1.132 and 2.073 and 0.863 | IL-4 Assays, pg/ml IL-4, Avg. of Group [1, 2]: 2.89 pg/mL | IL-4 Assays, pg/ml IL-4, individual mice m1-m4 [1, 2]: 2.81 pg/mL and 5.60 pg/mL and 0.25 pg/mL and 0.45 pg/mL | Total IgM + IgG (1 week splenocyte cultures), Avg. [1, 2]: 57.45 | Total IgM + IgG (1 week splenocyte cultures), individual mice m1-m4 [1, 2]: 108.00 and 24.97 and 40.65 and 56.17 | Total IgE (1 week splenocyte cultures) ([1]; Group 2, 0 µg/ml Ova): 0.067 ng/mL | Total IgE (1 week splenocyte cultures), Avg. ([1]; Group 2, 0 µg/ml Ova): 0.017 | Total IgE (1 week splenocyte cultures), individual mice m1-m4 ([1]; Group 2, 0 µg/ml Ova): 0.000 and 0.051 and 0.007 and 0.009 | IL-4 Assays, pg/ml IL-4, Avg. of Group ([1]; Group 2, 5 µg/ml Ova): 5.86 pg/mL | IL-4 Assays, pg/ml IL-4, individual mice m1-m4 ([1]; Group 2, 5 µg/ml Ova): 3.18 pg/mL and 8.55 pg/mL | Total IgE (1 week splenocyte cultures) ([1]; Group 2, 5 µg/ml Ova): 0.128 ng/mL | Total IgE (1 week splenocyte cultures), Avg. ([1]; Group 2, 5 µg/ml Ova): 0.032 | Total IgE (1 week splenocyte cultures), individual mice m1-m4 ([1]; Group 2, 5 µg/ml Ova): 0.041 and 0.023 | Total IgM + IgG (1 week splenocyte cultures), Avg. ([1]; Group 2, 5 µg/ml Ova): 150.46 | Total IgM + IgG (1 week splenocyte cultures), individual mice m1-m4 ([1]; Group 2, 5 µg/ml Ova): 254.36 and 46.56 | IL-4 Assays, pg/ml IL-4, Avg. of Group ([1]; Group 2, 50 µg/ml Ova): 12.57 pg/mL | IL-4 Assays, pg/ml IL-4, individual mice m1-m4 ([1]; Group 2, 50 µg/ml Ova): 7.10 pg/mL and 11.46 pg/mL and 19.15 pg/mL and 75.36 pg/mL | Total IgE (1 week splenocyte cultures) ([1]; Group 2, 50 µg/ml Ova): 0.024 ng/mL | Total IgE (1 week splenocyte cultures), Avg. ([1]; Group 2, 50 µg/ml Ova): 0.006 | Total IgE (1 week splenocyte cultures), individual mice m1-m4 ([1]; Group 2, 50 µg/ml Ova): 0.011 and 0.002 and 0.004 and 0.007 | Total IgM + IgG (1 week splenocyte cultures), Avg. ([1]; Group 2, 50 µg/ml Ova): 241.75 | Total IgM + IgG (1 week splenocyte cultures), individual mice m1-m4 ([1]; Group 2, 50 µg/ml Ova): 137.57 and 176.41 and 331.79 and 321.23 | ng/ml IgE (4X avg.) ([1]; Group 2, serum): 6.020 ng/mL | Total IgE (Serum), Avg. ([1]; Group 4): 0.621 | Total IgE (1 week splenocyte cultures), individual mice m1-m4 ([1]; Group 4 (recent Ova challenge), 0 µg/ml Ova, listed as CRD-Leu4Ile11Cys13peptide 3(3-12)[MCP-1]): 0.008 and 0.001 and 0.015 and 0.002 | Total IgE (Serum), individual mice m1-m4 ([1]; Group 4 (treated 14 days, recent Ova challenge)): 0.310 and 0.298 and 0.984 and 0.890 | IL-4 Assays, pg/ml IL-4, Avg. of Group [1, 3]: 2.92 pg/mL | Total IgM + IgG (1 week splenocyte cultures), Avg. [1, 3]: 17.16 | Total IgE (1 week splenocyte cultures) ([1]; Group 4, 0 µg/ml Ova): 0.026 ng/mL | Total IgE (1 week splenocyte cultures), Avg. ([1]; Group 4, 0 µg/ml Ova): 0.007 | IL-4 Assays, pg/ml IL-4, Avg. of Group ([1]; Group 4, 5 µg/ml Ova): 8.05 pg/mL | IL-4 Assays, pg/ml IL-4, individual mice m1-m4 ([1]; Group 4, 5 µg/ml Ova): 10.40 pg/mL and 12.77 pg/mL and 4.59 pg/mL and 4.45 pg/mL | Total IgE (1 week splenocyte cultures) ([1]; Group 4, 5 µg/ml Ova): 0.096 ng/mL | Total IgE (1 week splenocyte cultures), Avg. ([1]; Group 4, 5 µg/ml Ova): 0.024 | Total IgM + IgG (1 week splenocyte cultures), Avg. ([1]; Group 4, 5 µg/ml Ova): 163.95 | Total IgE (1 week splenocyte cultures), individual mice m1-m4 ([1]; Group 4, 5 µg/ml Ova, listed as CRD-Leu4Ile11Cys13peptide 3(3-12)[MCP-1]): 0.009 (2×) and 0.047 and 0.031 | Total IgM + IgG (1 week splenocyte cultures), individual mice m1-m4 ([1]; Group 4, 5 µg/ml Ova, listed as CRD-Leu4Ile11Cys13 peptide 3(3-12)[MCP]): 189.07 and 249.75 and 148.16 and 68.83 | IL-4 Assays, pg/ml IL-4, Avg. of Group ([1]; Group 4, 50 µg/ml Ova): 14.45 pg/mL
